Values joined by “and” are separate entries in the source; they are usually repeats but may differ in a detail not shown here. Identical values can stand only once. Like-named read-outs stand apart in the source and are kept apart here.
Experiments:
WBC [1] = assay: WBC recovery rate after centrifugation (cell stabilization, Example 5); assay type: cell-based; settings: Centrifugation: 20 min, 500×g
WBC [2] = assay: as above; assay type: cell-based; settings: Centrifugation: 20 min, 300×g; 10 min, 1 h, 2 h incubation
Description: A) WBC Recovery Rate after Centrifugation and Cell Immobilization Using Different Molecules
Centrifugation characteristics: 10 min, 300×g.
B) WBC Recovery Rate after Centrifugation Using Different Compounds—Different Points of Time
Centrifugation characteristics: 10 min, 300×g. A: Choleseryl-TEG-Cholesteryl-TEG-(SpacerC18)7-Fluos-Biotin-TEG.
C) WBC Recovery Rate after Centrifugation—Different Experimenters
Centrifugation characteristics: 10 min, 300×g. Molecule: Cholesteryl-TEG-Cholesteryl-TEG-(SpacerC18)7-Fluos-Biotin-TEG.
D) WBC Recovery Rate after Centrifugation—Different Points of Time and Centrifugation Settings
Centrifugation characteristics: 20 min, 300×g.

white blood cells (WBCs) = tested on: white blood cells (WBCs)
Description: In particular, the performance of a single cholesterol-molecule and different dual-linker molecules (i.e. containing two hydrophobic moieties) was tested. In detail, immobilization of white blood cells (WBCs) on a Streptavidin-coated surface using different linker molecules was tested on a 12-well plate: 300 000 WBCs/well. This was followed by the measurement of the cell recovery rate after immobilization and washing of the cells using the Cellavista instrument (10× Nuclei Operator s9s5).

WBCs [3] = assay: Immobilization of cells: recovery rate of cells on SA (streptavidin) plate or untreated plate (Example 3); assay type: cell-based
Description: The following applies for modular description of the compounds below: X=hydrophobic moiety, […]=fluorescein In the following experiment, the recovery rate of cells was determined.

COS 7 = assay: Labelling of cells using compounds (staining/uptake); assay type: cell-based
Source text: (§1) 2. Labelling of Cells Using Compounds Useful in Methods of the Invention

CHO = assay: as above; assay type: cell-based
Source text: as §1

Hela = assay: as above; assay type: cell-based
Source text: as §1

U937 = assay: as above; assay type: cell-based
Source text: as §1

Jurkats = assay: as above; assay type: cell-based
Source text: as §1

NIH 3T3 = assay: as above; assay type: cell-based
Source text: as §1

MDA-MB468 = assay: as above; assay type: cell-based
Source text: as §1

Epithelial cells = assay: as above; assay type: cell-based
Source text: as §1

MDAs in WBCs = assay: Immobilization of cells: recovery rate of MDAs spiked in WBCs on SA-plate (Example 3); assay type: cell-based
Description: The following applies for modular description of the compounds below:
X=hydrophobic moiety, Y=PEG2000, Z=Biotin-TEG, F=Fluos=fluorescein
In the following experiment, the recovery rate of cells was determined.

WBCs [4] = assay: Labelling of cells using compounds (staining/uptake); assay type: cell-based
Source text: as §1

[5] = Sample 1, first block (concentration not given), 300 000 WBCs/well
[6] = Sample 2, compound concentration: 100 pmol/10e6 WBCs
[7] = Sample 2, compound concentration: 1 nmol/10e6 WBCs

3′-(Myristic acid)2-PEG2000-dT-Biotin-TEG-5′ INVERS [compound 1255]
WBC recovery rate after centrifugation, performance ranking (WBC [1]): followed by molecule 1255 and 1254
WBC recovery rate after centrifugation, performance ranking (WBC [2]): followed by compound 1255 and 1254

5′-(Cholesteryl-TEG)2-Spacer C18-Fluos-Biotin_TEG-3′ INVERS [29.891254]
WBC recovery rate after centrifugation, performance ranking (WBC [1]): followed by molecule 1255 and 1254
Recovery Rate (white blood cells (WBCs); [5]): 57.63%
cells counted per well (white blood cells (WBCs); [5]): 157660 and 190148 and 170850
Recovery Rate (white blood cells (WBCs); Sample 1, compound concentration: 1 nmol/10e6 WBCs): 82.19%
cells counted per well (white blood cells (WBCs); Sample 1, compound concentration: 1 nmol/10e6 WBCs, 300 000 WBCs/well): 244649 and 234262 and 260760
Mean (cells counted per well) (white blood cells (WBCs); [6]): 197067.00
Recovery Rate (white blood cells (WBCs); [6]): 65.69%
cells counted per well (white blood cells (WBCs); Sample 2, compound concentration: 100 pmol/10e6 WBCs, 300 000 WBCs/well): 205917 and 185100 and 200184
Mean (cells counted per well) (white blood cells (WBCs); [7]): 245376.00
Recovery Rate (white blood cells (WBCs); [7]): 81.79%
cells counted per well (white blood cells (WBCs); Sample 2, compound concentration: 1 nmol/10e6 WBCs, 300 000 WBCs/well): 247428 and 244396 and 244304
Recovery Rate (WBCs [3]; 10 pmol/10e6 cells): 40.30%
Recovery Rate (WBCs [3]; 100 pmol/10e6 cells): 64.60% and 57.63% and 65.69% and 70.07% and 81.28%
Recovery Rate (WBCs [3]; 1 nmol/10e6 cells): 92.50% and 82.19% and 81.79% and 74.68%
Recovery Rate (WBCs [3]; 10 nmol/10e6 cells): 83.60%
WBC recovery rate after centrifugation, performance ranking (WBC [2]): followed by compound 1255 and 1254

5′-CholesterylTEG-CholesterylTEG-(SpacerC18)7-dT(Determ. of concentration)-BiotinTEG-3′ [compound 1234]
WBC recovery rate after centrifugation, performance ranking (WBC [1]): best performance
Recovery Rate (WBCs [3]; 10 pmol/10e6 cells): 9.6%
Recovery Rate (WBCs [3]; 100 pmol/10e6 cells): 18.8%
Recovery Rate (WBCs [3]; 300 pmol/10e6 cells): 26.8%
Recovery Rate (WBCs [3]; 500 pmol/10e6 cells): 24.9%
Recovery Rate (WBCs [3]; 10 nmol/10e6 cells): 99.7%
Recovery Rate (WBCs [3]; WBCs, 350 pmol/10e6 cells, 0.000003% Tween21): 13.0% and 25.0%
Recovery Rate (WBCs [3]; WBCs, 350 pmol/10e6 cells, 0.00001% Tween20): 14.0% and 23.0%
Recovery Rate (WBCs [3]; WBCs, 350 pmol/10e6 cells, 0.00003% Tween20): 12.0% and 20.0%
Recovery Rate (WBCs [3]; WBCs, 350 pmol/10e6 cells, 0.00003% Tween22): 22.0% and 36.0%
Recovery Rate (WBCs [3]; WBCs, 350 pmol/10e6 cells, 0.0001% Tween21): 22.0% and 28.0%
Recovery Rate (WBCs [3]; WBCs, 350 pmol/10e6 cells, 0.0003% Tween20): 12.0% and 18.0%
Recovery Rate (WBCs [3]; WBCs, 350 pmol/10e6 cells, 0.001% Tween20): 10.0% and 15.0%
Recovery Rate (WBCs [3]; WBCs, 350 pmol/10e6 cells, 1:1 diluted): 22.0% and 25.0%
Recovery Rate (WBCs [3]; WBCs, 350 pmol/10e6 cells, US + 10′ 98° C.): 27.0% and 23.0%
Recovery Rate (WBCs [3]; WBCs, 350 pmol/10e6 cells, not evaporated, VIVA Spin): 18.0% and 19.0%
Recovery Rate (WBCs [3]; WBCs, 350 pmol/10e6 cells, untreated): 17.0% and 13.0%
Recovery Rate (WBCs [3]; WBCs, 1000 pmol/10e6 cells): 35.4%
Recovery Rate (WBCs [3]; WBCs, 1000 pmol/10e6 cells, not evaporated, VIVA Spin): 42.0% and 45.0%
WBC recovery rate after centrifugation, performance ranking (WBC [2]): best performance

5′-CholesterylTEG-CholesterylTEG-PEG2000-Fluos-3′ [29.891133]
Labelling (staining/uptake) of cells (COS 7): ✓
Labelling (staining/uptake) of cells (CHO): ✓
Labelling (staining/uptake) of cells (Hela): ✓
Labelling (staining/uptake) of cells (U937): ✓
Labelling (staining/uptake) of cells (Jurkats): ✓
Labelling (staining/uptake) of cells (NIH 3T3): ✓
Labelling (staining/uptake) of cells (MDA-MB468): ✓
Labelling (staining/uptake) of cells (Epithelial cells): ✓

5′-CholesterylTEG-CholesterylTEG-PEG2000-Fluos-BiotinTEG-3′ [29.891180]
Recovery rate treated cells (SA-plate) (WBCs [3]; 2.16 μg/2 × 10e6 WBCs): 78.6%
Recovery rate treated cells (SA-plate) (WBCs [3]; 21.6 μg/2 × 10e6 WBCs): 68.6%
Recovery rate treated cells (SA-plate) (WBCs [3]; 216 μg/2 × 10e6 WBCs): 50.1%
Recovery rate treated cells (SA-plate) (WBCs [3]; 5 × 10e5 WBCs (MDA spiking experiment)): 70.0% and 70.8%
Recovery rate treated cells (SA-plate) (WBCs [3]; 10e6 WBCs (MDA spiking experiment)): 69.4%
Recovery rate treated cells (SA-plate) (WBCs [3]; 200 μl Zellsus.): 67.6% and 71.9%
Recovery rate treated cells (SA-plate) (WBCs [3]; 400 μl Zellsus.): 78.4% and 84.1%
Recovery rate treated cells (SA-plate) (WBCs [3]; 10 min 4° C.): 81.6%
Recovery rate treated cells (SA-plate) (WBCs [3]; 10 min RT): 88.3%
Recovery rate treated cells (SA-plate) (WBCs [3]; 800 μl Zellsus.): 81.1% and 86.4%
Recovery rate treated cells (SA-plate) (WBCs [3]; 60 min 4° C.): 81.7%
Recovery rate treated cells (SA-plate) (WBCs [3]; 60 min RT): 85.5%
Recovery rate treated cells (untreated-plate) (WBCs [3]; cells treated with compound, untreated plate): 56.7%
Recovery rate treated cells (SA-plate) (MDAs in WBCs; 10e4 MDAs in WBCs): 99.0%
Recovery rate treated cells (SA-plate) (MDAs in WBCs; 20e3 MDAs in WBCs): 102.0%
Recovery rate treated cells (SA-plate) (MDAs in WBCs; 40e3 MDAs in WBCs): 102.0%

CCCCCCCCCCCCCCCCCCN1C(=CC=CC2=[N+](CCCCCCCCCCCCCCCCCC)c3ccccc3C2(C)C)C(C)(C)c2ccccc21.[O-][Cl+3]([O-])([O-])[O-] [1,1′-Dioctadecyl-3,3,3′,3′-tetramethylindocarbocyanin perchlorate]
Labelling (staining/uptake) of cells (COS 7): ✓
Labelling (staining/uptake) of cells (CHO): ✓
Labelling (staining/uptake) of cells (Hela): ✓
Labelling (staining/uptake) of cells (U937): ✓
Labelling (staining/uptake) of cells (Jurkats): ✓
Labelling (staining/uptake) of cells (WBCs [4]): ✓ not all
Labelling (staining/uptake) of cells (NIH 3T3): ✓*
Labelling (staining/uptake) of cells (MDA-MB468): ✓
Labelling (staining/uptake) of cells (Epithelial cells): ✓

CCCCC/C=C\C/C=C\CCCCCCCCN1C(=CC=CC2=[N+](CCCCCCCC/C=C\C/C=C\CCCCC)c3ccccc3C2(C)C)C(C)(C)c2ccccc21.[O-][Cl+3]([O-])([O-])[O-] [Linol, 1,1′-dilinoleyl-3,3,3′,3′-tetramethylindocarbocyanine perchlorate]
Labelling (staining/uptake) of cells (COS 7): ✓
Labelling (staining/uptake) of cells (CHO): ✓
Labelling (staining/uptake) of cells (Hela): ✓
Labelling (staining/uptake) of cells (U937): ✓
Labelling (staining/uptake) of cells (Jurkats): ✓
Labelling (staining/uptake) of cells (NIH 3T3): ✓
Labelling (staining/uptake) of cells (MDA-MB468): ✓
Labelling (staining/uptake) of cells (Epithelial cells): ✓

CCCCCCCCCCCCCCCCCCCCCC[N+]1=C(/C=C/C=C2/N(CCCCCCCCCCCCCC)c3ccccc3C2(C)C)C(C)(C)c2ccccc21.[I-] [PKH26]
Labelling (staining/uptake) of cells (COS 7): ✓
Labelling (staining/uptake) of cells (CHO): ✓
Labelling (staining/uptake) of cells (Hela): ✓*
Labelling (staining/uptake) of cells (U937): ✓
Labelling (staining/uptake) of cells (Jurkats): ✓
Labelling (staining/uptake) of cells (NIH 3T3): ✓
Labelling (staining/uptake) of cells (MDA-MB468): ✓
Labelling (staining/uptake) of cells (Epithelial cells): ✓ not all

CCCCCCCCCCCCC/C=C/[C@@H](O)[C@H](COP(=O)([O-])OCC[N+](C)(C)C)NC(=O)CCCCc1ccc2n1[B-](F)(F)[N+]1=C(C)C=C(C)C1=C2 [Sphingomyelin, N-(4,4-difluoro-5,7-dimethyl-4-bora-3a,4a-diaza-s-indacene-3-pentanoyl)sphingosyl phosphocholine]
Labelling (staining/uptake) of cells (CHO): x very weak
Labelling (staining/uptake) of cells (Hela): ✓
Labelling (staining/uptake) of cells (WBCs [4]): (x)- very bad
Labelling (staining/uptake) of cells (Epithelial cells): ✓

— US11965886B2, “Method of immobilizing a cell on a support using compounds comprising a polyethylene glycol moiety” (Roche Diagnostics Operations, Inc., priority 2013, dated 2024)
